Data as given in the supplement of paper PMC10307832.

Legend:
Assay in all cases: relative viability (nuclei count vs DMSO), 5 days (fraction); higher = more cells survive
[1] = compound: CN(C)CC1=CC(=CC=C1)N=C(C2=CC=CC=C2)C3=C(NC4=C3C=CC(=C4)C(=O)N(C)C)O + CC(C)C[C@H](NC(=O)[C@H](Cc1ccccc1)NC(=O)c1cnccn1)B(O)O [Bortezomib] (partner 0.002 µM)
Outline: (§1)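 Lung cancer cell lines were seeded in 1536-well plates and dosed by pin tool the next day, with either a single drug or a fixed anchor-drug dose combined with five library-drug doses (not always all listed) spaced in √10 steps. Five days later, one step fixed the cells and stained their nuclei (final 0.05% Triton X-100, 1% formaldehyde, 1 ug/ml Hoechst), and nuclei were counted on 4× images. Relative viability is the nuclei count in treated wells divided by the count in vehicle wells, and each value is the median of duplicate plates.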

[2] = compound: CN(C)CC1=CC(=CC=C1)N=C(C2=CC=CC=C2)C3=C(NC4=C3C=CC(=C4)C(=O)N(C)C)O + CCNC(=O)c1noc(-c2cc(C(C)C)c(O)cc2O)c1-c1ccc(CN2CCOCC2)cc1 [Luminespib] (partner 0.01 µM)
Outline: as §1

[3] = compound: CN(C)CC1=CC(=CC=C1)N=C(C2=CC=CC=C2)C3=C(NC4=C3C=CC(=C4)C(=O)N(C)C)O + CC(=O)c1c(C)c2cnc(Nc3ccc(N4CCNCC4)cn3)nc2n(C2CCCC2)c1=O [Palbociclib] (partner 0.5 µM)
Outline: as §1

[4] = compound: CN(C)CC1=CC(=CC=C1)N=C(C2=CC=CC=C2)C3=C(NC4=C3C=CC(=C4)C(=O)N(C)C)O + Cc1nc(Nc2ncc(C(=O)Nc3c(C)cccc3Cl)s2)cc(N2CCN(CCO)CC2)n1 [Dasatinib] (partner 0.075 µM)
Outline: as §1

| Cell Line | relative viability ([1]; first compound 0.08 µM) | relative viability ([1]; first compound 0.253 µM) | relative viability ([1]; first compound 0.8 µM) | relative viability ([1]; first compound 2.53 µM) | relative viability ([1]; first compound 8 µM) | relative viability ([2]; first compound 0.08 µM) | relative viability ([2]; first compound 0.253 µM) | relative viability ([2]; first compound 0.8 µM) | relative viability ([2]; first compound 2.53 µM) | relative viability ([2]; first compound 8 µM) | relative viability ([3]; first compound 0.08 µM) | relative viability ([3]; first compound 0.253 µM) | relative viability ([3]; first compound 0.8 µM) | relative viability ([3]; first compound 2.53 µM) | relative viability ([3]; first compound 8 µM) | relative viability ([4]; first compound 0.08 µM) | relative viability ([4]; first compound 0.253 µM) | relative viability ([4]; first compound 0.8 µM) | relative viability ([4]; first compound 2.53 µM) | relative viability ([4]; first compound 8 µM) |
| --- | --- | --- | --- | --- | --- | --- | --- | --- | --- | --- | --- | --- | --- | --- | --- | --- | --- | --- | --- | --- |
| COR-L23 | 0.99 | 1.06 | 0.991 | 0.958 | 0.904 | 0.752 | 0.787 | 0.791 | 0.523 | 0.665 | 0.321 | 0.329 | 0.379 | 0.269 | 0.326 | 0.54 | 0.469 | 0.596 | 0.423 | 0.566 |
| LK-2 | – | – | – | – | – | 0.229 | 0.164 | 0.188 | 0.183 | 0.138 | 0.52 | 0.814 | 0.605 | 0.561 | 0.541 | 0.296 | 0.389 | 0.25 | 0.328 | 0.275 |
| PC-14 | 0.989 | 0.839 | 0.89 | 0.767 | 1.06 | 0.206 | 0.131 | 0.146 | 0.145 | 0.102 | 0.474 | 0.412 | 0.635 | 0.614 | 0.537 | 0.289 | 0.273 | 0.324 | 0.247 | 0.197 |
| SW 1573 | 1.04 | 1.16 | 1.06 | 0.946 | 0.94 | 0.162 | 0.269 | 0.207 | 0.296 | 0.183 | 0.323 | 0.42 | 0.367 | 0.34 | 0.317 | 0.538 | 0.794 | 0.589 | 0.436 | 0.383 |
| NCI-H2087 | 0.656 | 0.785 | 0.986 | 0.816 | 1.03 | 0.164 | 0.197 | 0.232 | 0.167 | 0.172 | 0.233 | 0.236 | 0.214 | 0.289 | 0.263 | 0.953 | 0.835 | 0.914 | 0.794 | 0.793 |
| NCI-H460 | 1.22 | 1.05 | 1.1 | 0.974 | 1.06 | 0.0333 | 0.0284 | 0.0254 | 0.0282 | 0.0318 | 0.224 | 0.221 | 0.211 | 0.132 | 0.237 | 0.669 | 0.558 | 0.736 | 0.387 | 0.398 |
| NCI-H1734 | 0.954 | 0.868 | 0.92 | 0.815 | 0.78 | 0.206 | 0.168 | 0.164 | 0.25 | 0.174 | 0.39 | 0.353 | 0.346 | 0.31 | 0.31 | 0.473 | 0.46 | 0.441 | 0.394 | 0.39 |
| NCI-H1648 | – | – | – | – | – | – | – | – | – | – | 0.274 | 0.276 | – | 0.365 | 0.315 | – | – | – | – | – |
| NCI-H2228 | 1.09 | 1.15 | 1.11 | 0.779 | 0.94 | 0.134 | 0.152 | 0.142 | 0.164 | 0.137 | 0.825 | 0.602 | 0.715 | 0.673 | 0.77 | 0.518 | 0.484 | 0.479 | 0.424 | 0.412 |
| HCC-44 | 0.913 | 0.872 | 0.875 | 0.803 | 0.948 | 1.15 | 0.761 | 1.03 | 0.917 | 0.991 | 0.966 | 1.01 | 0.973 | 0.923 | 1 | – | – | – | – | – |
| EMC-BAC-2 | 1.09 | 1.08 | 1.09 | 1.05 | 1.01 | 1.2 | 1.28 | 1.15 | 1.16 | 1.11 | 0.561 | 0.533 | 0.511 | 0.494 | 0.542 | 0.358 | 0.388 | 0.308 | 0.348 | 0.318 |
| NCI-H522 | – | – | – | – | – | 1.16 | 1.13 | 1.12 | 1.22 | 0.819 | 0.956 | 1.04 | 0.906 | 0.886 | 0.923 | 0.938 | 0.97 | 0.788 | 0.837 | 0.982 |
| NCI-H1915 | 0.976 | 1.02 | 0.985 | 0.923 | 0.956 | 0.745 | 0.745 | 0.811 | 0.836 | 0.667 | 0.533 | 0.528 | 0.555 | 0.537 | 0.48 | 0.365 | 0.369 | 0.318 | 0.323 | 0.292 |
| NCI-H661 | 0.897 | 0.707 | 0.918 | 0.873 | 0.607 | 0.922 | 0.904 | 0.964 | 0.865 | 0.811 | 0.435 | 0.381 | 0.391 | 0.392 | 0.429 | 0.979 | 0.747 | 0.679 | 0.8 | 0.856 |
| LCLC-97TM1 | 0.528 | 0.942 | 0.504 | 0.605 | 1.35 | 0.757 | 0.849 | 0.771 | 0.957 | 0.834 | 0.199 | 0.224 | 0.258 | 0.254 | 0.299 | 0.816 | 0.922 | 0.785 | 0.786 | 0.821 |
| NCI-H1793 | – | – | – | – | – | 0.19 | 0.249 | – | 0.165 | 0.113 | 0.27 | 0.363 | 0.326 | 0.329 | 0.351 | 0.438 | 0.387 | – | 0.425 | 0.411 |
| HOP-62 | 0.875 | 1.25 | 0.746 | 0.801 | 0.72 | 0.818 | 0.933 | 0.977 | 0.929 | 1.05 | 0.372 | 0.445 | 0.441 | 0.43 | 0.4 | 0.618 | 0.703 | 0.65 | 0.571 | 0.579 |
| HCC-827 | 1.08 | 1.03 | 1.08 | 1.08 | 1.05 | 0.442 | 0.651 | 0.457 | 0.723 | 0.489 | 0.516 | 0.385 | 0.38 | 0.52 | 0.472 | 0.382 | 0.25 | 0.203 | 0.294 | 0.236 |
